Assay results taken from patent US10918713B2, “Epitopes from allergen proteins and methods and uses for immune response modulation” (LA JOLLA INSTITUTE FOR ALLERGY AND IMMUNOLOGY, priority 2012, dated 2021).
“And” between values parts separate entries of the source, which are not always exact repeats. Equal values may be shown once.

Columns and labels:
Type in all cases: cell-based, human
[1] = tested on: PBMC from allergic donors; experiment: IFN-γ ELISPOT with extract-stimulated short-term lines; conditions: positive donor/peptide response; each table line is one donor
Method: (§1) Spots were counted by computer-assisted image analysis (Zeiss, KS-ELISPOT reader, Munich, Germany).
(§2) Each assay was performed in triplicate. The level of statistical significance was determined with a Student's t-test using the mean of triplicate values of the response against relevant pools or individual peptides versus the response against the DMSO control.

[2] = tested on: PBMC from allergic donors; experiment: Dual ELISPOT, total IL-5 and IFN-γ response (SFC); conditions: sum of IFNg and IL-5
Method: as §1, §2

[3] = tested on: PBMC from allergic donors; experiment: IL-5 ELISPOT with extract-stimulated short-term lines; conditions: positive donor/peptide response
Method: as §1, §2

## 3324.1151 (NEMSWIESIPFVHLG)
[1]
  Response (SFC/10^6) IFNg: 1933 SFC/10^6
[2]; each table line is one donor
  Response (SFC/10^6) Total: 1933 SFC/10^6

## 3324.1152 (FPHRKGVLFNIQYVN)
[1]
  Response (SFC/10^6) IFNg: 100 SFC/10^6
[2]; each table line is one donor
  Response (SFC/10^6) Total: 100 SFC/10^6

## 3324.1159 (PENFAVVDLNQMRAV)
[1]
  Response (SFC/10^6) IFNg: 75 SFC/10^6
[2]; each table line is one donor
  Response (SFC/10^6) Total: 75 SFC/10^6

## 3324.1640 (VTAFGFDLVRGTKTL)
[2]; each table line is one donor
  Response (SFC/10^6) Total: 73 SFC/10^6
[3]; each table line is one donor
  Response (SFC/10^6) IL-5: 73 SFC/10^6

## CC[C@H](C)[C@H](NC(=O)[C@H](Cc1ccc(O)cc1)NC(=O)[C@H](CC(C)C)NC(=O)[C@@H]1CCCN1C(=O)[C@H](CCSC)NC(=O)[C@H](CC(N)=O)NC(=O)[C@H](CC(C)C)NC(=O)[C@H](CCCCN)NC(=O)[C@@H](NC(=O)[C@H](CC(N)=O)NC(=O)[C@H](CC(C)C)NC(=O)[C@@H](N)CC(N)=O)[C@@H](C)CC)C(=O)N[C@@H](C)C(=O)NCC(=O)N[C@@H](CC(N)=O)C(=O)O [3324.0523]
[2]; one donor per table line
  Response (SFC/10^6) Total: 1708 SFC/10^6
[3]; one donor per table line
  Response (SFC/10^6) IL-5: 1708 SFC/10^6

## CC[C@H](C)[C@H](NC(=O)[C@H](CC(N)=O)NC(=O)[C@H](CCSC)NC(=O)[C@@H](N)CC(N)=O)C(=O)N[C@@H](CCCCN)C(=O)N[C@@H](CC(C)C)C(=O)N[C@@H](CCCCN)C(=O)N[C@@H](CCSC)C(=O)N1CCC[C@H]1C(=O)N[C@@H](CC(C)C)C(=O)N[C@@H](Cc1ccc(O)cc1)C(=O)N[C@H](C(=O)N[C@@H](C)C(=O)NCC(=O)N[C@@H](Cc1c[nH]cn1)C(=O)O)C(C)C [3324.0624]
[2]; one donor per table line
  Response (SFC/10^6) Total: 3147 SFC/10^6
[3]; one donor per table line
  Response (SFC/10^6) IL-5: 3147 SFC/10^6

## CC[C@H](C)[C@H](NC(=O)[C@H](CO)NC(=O)[C@H](CC(C)C)NC(=O)[C@H](C)NC(=O)[C@H](CC(C)C)NC(=O)[C@H](CC(N)=O)NC(=O)[C@H](CCCCN)NC(=O)[C@H](CCC(=O)O)NC(=O)[C@H](CC(=O)O)NC(=O)[C@H](CO)NC(=O)CN)C(=O)N[C@@H](CCCCN)C(=O)N[C@@H](Cc1ccc(O)cc1)C(=O)N[C@@H](CC(N)=O)C(=O)N[C@@H](CCCCN)C(=O)O [3324.0657]
[2]; one donor per table line
  Response (SFC/10^6) Total: 1000 SFC/10^6 and 693 SFC/10^6
[3]; one donor per table line
  Response (SFC/10^6) IL-5: 1000 SFC/10^6 and 693 SFC/10^6

## CC[C@H](C)[C@H](NC(=O)[C@H](CO)NC(=O)[C@H](CC(C)C)NC(=O)[C@H](C)NC(=O)[C@H](CC(C)C)NC(=O)[C@@H](N)CC(N)=O)C(=O)N[C@@H](CCCCN)C(=O)N[C@@H](Cc1ccc(O)cc1)C(=O)N[C@@H](CC(N)=O)C(=O)N[C@@H](CCCCN)C(=O)N[C@@H](CCC(=O)O)C(=O)NCC(=O)N[C@@H](CC(=O)O)C(=O)N[C@@H](CO)C(=O)N[C@@H](CCSC)C(=O)O [3324.0658]
[2]; one donor per table line
  Response (SFC/10^6) Total: 917 SFC/10^6 and 853 SFC/10^6
[3]; one donor per table line
  Response (SFC/10^6) IL-5: 917 SFC/10^6 and 853 SFC/10^6

## CC[C@H](C)[C@H](NC(=O)[C@H](Cc1c[nH]cn1)NC(=O)[C@H](Cc1ccc(O)cc1)NC(=O)[C@H](C)NC(=O)[C@@H](NC(=O)[C@H](Cc1ccccc1)NC(=O)[C@H](C)NC(=O)[C@H](CC(=O)O)NC(=O)[C@@H](N)Cc1ccccc1)C(C)C)C(=O)NCC(=O)N[C@@H](C)C(=O)N[C@@H](CCCNC(=N)N)C(=O)N[C@H](C(=O)N[C@H](C(=O)N[C@@H](CO)C(=O)O)C(C)C)[C@@H](C)CC [3324.0971]
[2]; one donor per table line
  Response (SFC/10^6) Total: 187 SFC/10^6
[3]; one donor per table line
  Response (SFC/10^6) IL-5: 187 SFC/10^6

## CC[C@H](C)[C@H](NC(=O)[C@H](C)NC(=O)[C@@H](NC(=O)[C@H](Cc1ccccc1)NC(=O)[C@H](C)NC(=O)[C@H](CCCNC(=N)N)NC(=O)[C@H](CC(N)=O)NC(=O)CNC(=O)[C@H](CCCNC(=N)N)NC(=O)[C@@H](N)CO)[C@@H](C)CC)C(=O)N[C@@H](CC(N)=O)C(=O)N[C@@H](CC(C)C)C(=O)N[C@@H](CCC(N)=O)C(=O)N[C@@H](CCCCN)C(=O)N[C@@H](CC(N)=O)C(=O)O [3324.0974]
[2]; one donor per table line
  Response (SFC/10^6) Total: 940 SFC/10^6
[3]; one donor per table line
  Response (SFC/10^6) IL-5: 940 SFC/10^6

## CC[C@H](C)[C@H](NC(=O)[C@H](Cc1c[nH]cn1)NC(=O)[C@H](Cc1ccc(O)cc1)NC(=O)[C@H](C)NC(=O)[C@@H](NC(=O)[C@H](Cc1ccccc1)NC(=O)[C@H](C)NC(=O)[C@H](CC(=O)O)NC(=O)[C@H](Cc1ccccc1)NC(=O)[C@H](CCC(=O)O)NC(=O)[C@H](CC(=O)O)NC(=O)[C@H](Cc1c[nH]cn1)NC(=O)CNC(=O)[C@@H](NC(=O)[C@@H](N)Cc1ccc(O)cc1)C(C)C)C(C)C)C(=O)O [3324.0975]
[2]; one donor per table line
  Response (SFC/10^6) Total: 973 SFC/10^6
[3]; one donor per table line
  Response (SFC/10^6) IL-5: 973 SFC/10^6

## CC[C@H](C)[C@H](N)C(=O)N[C@@H](CCC(=O)O)C(=O)N[C@@H](Cc1ccccc1)C(=O)N[C@@H](CCCNC(=N)N)C(=O)N[C@@H](Cc1ccccc1)C(=O)N[C@@H](Cc1ccc(O)cc1)C(=O)N[C@@H](CCCCN)C(=O)N[C@@H](CCC(=O)O)C(=O)N[C@H](C(=O)N[C@H](C(=O)N[C@@H](CC(N)=O)C(=O)N[C@H](C(=O)N[C@@H](Cc1ccccc1)C(=O)N[C@@H](CCCNC(=N)N)C(=O)NCC(=O)O)C(C)C)[C@@H](C)O)[C@@H](C)CC [3324.0976]
[2]; one donor per table line
  Response (SFC/10^6) Total: 153 SFC/10^6 and 610 SFC/10^6
[3]; one donor per table line
  Response (SFC/10^6) IL-5: 153 SFC/10^6 and 610 SFC/10^6

## CSCC[C@H](NC(=O)[C@H](Cc1ccccc1)NC(=O)[C@H](C)N)C(=O)N[C@@H](CC(C)C)C(=O)N[C@@H](C)C(=O)N[C@@H](Cc1c[nH]c2ccccc12)C(=O)N[C@@H](CC(N)=O)C(=O)N[C@@H](Cc1ccc(O)cc1)C(=O)NCC(=O)N[C@H](C(=O)N1CCC[C@H]1C(=O)N[C@@H](CCCNC(=N)N)C(=O)N[C@H](C(=O)N[C@@H](CCSC)C(=O)N[C@@H](CO)C(=O)O)C(C)C)C(C)C [3324.0977]
[2]; one donor per table line
  Response (SFC/10^6) Total: 1413 SFC/10^6 and 157 SFC/10^6
[3]; one donor per table line
  Response (SFC/10^6) IL-5: 1413 SFC/10^6 and 157 SFC/10^6

## CC[C@H](C)[C@H](NC(=O)[C@H](C)NC(=O)[C@@H](NC(=O)[C@H](Cc1ccccc1)NC(=O)[C@H](C)NC(=O)[C@H](CCCNC(=N)N)NC(=O)[C@H](CC(N)=O)NC(=O)CNC(=O)[C@H](CCCNC(=N)N)NC(=O)[C@H](CO)NC(=O)[C@H](Cc1ccccc1)NC(=O)[C@H](C)NC(=O)[C@@H](NC(=O)[C@H](CCC(N)=O)NC(=O)[C@@H](N)Cc1ccc(O)cc1)[C@@H](C)CC)[C@@H](C)CC)C(=O)O [3324.0980]
[2]; one donor per table line
  Response (SFC/10^6) Total: 177 SFC/10^6 and 380 SFC/10^6
[3]; one donor per table line
  Response (SFC/10^6) IL-5: 177 SFC/10^6 and 380 SFC/10^6

## CC[C@H](C)[C@H](N)C(=O)N[C@H](C(=O)N[C@@H](CC(C)C)C(=O)N[C@@H](CC(N)=O)C(=O)N[C@@H](Cc1c[nH]cn1)C(=O)N[C@@H](CCSC)C(=O)N[C@H](C(=O)NCC(=O)N[C@@H](C)C(=O)N[C@@H](CCC(N)=O)C(=O)N[C@@H](CO)C(=O)NCC(=O)N[C@@H](CCCCN)C(=O)NCC(=O)N[C@H](C(=O)O)[C@@H](C)O)[C@@H](C)O)C(C)C [3324.0987]
[2]; one donor per table line
  Response (SFC/10^6) Total: 507 SFC/10^6
[3]; one donor per table line
  Response (SFC/10^6) IL-5: 507 SFC/10^6

## CC[C@H](C)[C@H](N)C(=O)N[C@@H](CCCCN)C(=O)N[C@@H](CO)C(=O)N[C@@H](CC(=O)O)C(=O)N[C@@H](CCCCN)C(=O)N1CCC[C@H]1C(=O)N[C@@H](CC(C)C)C(=O)N[C@@H](CCCCN)C(=O)NCC(=O)N1CCC[C@H]1C(=O)N[C@@H](Cc1ccccc1)C(=O)N[C@@H](CC(N)=O)C(=O)N[C@@H](Cc1ccccc1)C(=O)N[C@@H](CCCNC(=N)N)C(=O)N[C@@H](Cc1ccccc1)C(=O)O [3324.1140]
[2]; each table line is one donor
  Response (SFC/10^6) Total: 317 SFC/10^6
[3]; each table line is one donor
  Response (SFC/10^6) IL-5: 317 SFC/10^6

## CC[C@H](C)[C@H](NC(=O)[C@H](Cc1ccccc1)NC(=O)[C@H](CCCCN)NC(=O)[C@H](Cc1ccc(O)cc1)NC(=O)[C@H](CO)NC(=O)[C@@H](N)CC(=O)O)C(=O)N1CCC[C@H]1C(=O)N[C@H](C(=O)N[C@@H](CC(C)C)C(=O)N[C@H](C(=O)N[C@@H](C)C(=O)N[C@@H](C)C(=O)N[C@H](C(=O)N[C@@H](CCCCN)C(=O)N[C@@H](CCC(N)=O)C(=O)O)C(C)C)C(C)C)[C@@H](C)O [3324.1165]
[2]; each table line is one donor
  Response (SFC/10^6) Total: 382 SFC/10^6 and 78 SFC/10^6
[3]; each table line is one donor
  Response (SFC/10^6) IL-5: 382 SFC/10^6 and 78 SFC/10^6
